Test results published in publication PMC9503898, “Synthesis and Evaluation of Two Long-Acting SSTR2 Antagonists for Radionuclide Therapy of Neuroendocrine Tumors” (Pharmaceuticals, 2022).
Each block holds one molecule with its values, some of them ahead of it. Positions of bridges follow the written chain, without caps; N, C: chain ends. Non-standard residues stand in square brackets, D forms with d. Residues, ends and D or L forms follow the SMILES beside them. *: point of attachment. DOTA = O=C(O)CN1CCN(CC(=O)O)CCN(CC(=O)*)CCN(CC(=O)O)CC1; dPhe(4-NHCONH2) = NC(=O)Nc1ccc(C[C@@H](N)C(=O)O)cc1; Butanoyl(4-(4-MeO-phenyl)) = COc1ccc(CCCC(=O)*)cc1; Butanoyl(4-(4-I-phenyl)) = O=C(CCCc1ccc(I)cc1)*; Dihydroorotyl(S) = O=C1C[C@@H](C(=O)*)NC(=O)N1; Phe(4-Cl) = N[C@@H](Cc1ccc(Cl)cc1)C(=O)O; Phe(4-NH2) = Nc1ccc(C[C@H](N)C(=O)O)cc1

Columns and labels:
[1] = molecular target: T1, SSTR2 receptor (U2OS-SSTR2 cells) (Homo sapiens, UniProt P30874); assay: Competitive binding assay against [^177Lu]Lu-JR11; conditions: radioligand [^177Lu]Lu-JR11 10^−9 M, unlabeled compound 10^−12 to 10^−5 M, 90 min, 37 °C, triplicate
T1 construct: expressed in transfected cells; host or cells: U2OS human osteosarcoma cells stably expressing SSTR2
Protocol: Human osteosarcoma cells (U2OS) stably expressing the SSTR2 receptor were used in all in vitro cell assays. Cells were cultured in Dulbecco’s modified Eagle’s medium (DMEM) from Gibco (Paisley, UK) supplemented with 2 mM L-glutamine, 10% fetal bovine serum (FBS), 50 units/mL penicillin, and 50 μg/mL streptomycin (Sigma Aldrich; Haarlerbergweg, The Netherlands) and maintained at 37 °C and in a 5% CO2 humidified chamber. Passages were performed weekly using trypsin/EDTA (0.05%/0.02% w/v).
Competitive binding experiments against [^177Lu]Lu-JR11 were performed with 8a and 8b in U2OS-SSTR2 cells. Cells were seeded in a 24-well plate 24 h in advance (2 × 10^5 cells/well). On the day of the experiment, medium was removed, and the cells were washed once with PBS (Gibco). Then, solutions containing unlabeled compound 8a or 8b in increasing concentrations (10^−12 to 10^−5 M) in internalization medium (DMEM media, 20 mM HEPES, 1% BSA, pH 7.4) were added, followed by the addition of [^177Lu]Lu-JR11 (10^−9 M). For each concentration, experiments were performed in triplicate. Cells were incubated at 37 °C for 90 min. After incubation, medium was removed, and cells were washed once with PBS and lysed with 0.5 M sodium hydroxide (NaOH) for 10 min at rt. The lysate was transferred to counting tubes, and measurement was performed using the γ-counter.

Stability in PBS = type: physicochemical; conditions: % intact radiolabeled ligand, ~3 MBq in PBS (300 μL), 37 °C, radio-HPLC, n = 1
Protocol: (§1) The ^177Lu-labeled compounds (~3 MBq) were incubated in PBS (300 μL) at 37 °C. The stability of the radiolabeled peptides was verified by radio-HPLC at 1, 4, and 24 h. The stability in serum was determined by incubating the radiolabeled compounds (~3 MBq) into 150 μL of mouse serum (Merck; Haarlerbergweg, The Netherlands) at 37 °C. At 1, 4, and 24 h post-incubation, the proteins were precipitated by adding an aliquot of 35 μL of the mixture to an equal volume of ACN. The vial was vortexed and centrifuged for 20 min. stability was monitored by radio-HPLC (Figures S4 and S5).

Stability in mouse serum = type: in vitro ADME; conditions: % intact radiolabeled ligand, ~3 MBq in 150 μL mouse serum, 37 °C, ACN protein precipitation, radio-HPLC, n = 1
Protocol: as §1

[2] = Determination of lipophilicity (LogD7.4, shake-flask); type: physicochemical; conditions: n-octanol/PBS (1:1), pH 7.4, PBS/n-octanol 1:1 (1 mL), ~1.5 MBq, gamma counter, n = 3 (triplicate), mean ± SEM, read-out: Log D7.4
Protocol: The distribution coefficient (LogD7.4) of the ^177Lu-labeled peptides was determined by the shake-flask method. For each radioligand, the experiment was performed in triplicate. The radiolabeled compound (~1.5 MBq) was added to a solution of phosphate buffered saline (PBS)/n-octanol (1 mL, v:v = 1:1) in eppendorf vials. The vials were vortexed vigorously and centrifuged at 10,000 rpm for 3 min. The n-octanol phase was separated from the aqueous phase, poured into new vials, and centrifuged for 15 min. Samples from each phase (10 μL) were measured using a gamma counter. The LogD7.4 value was calculated using the following equation: […].

In vivo SPECT/CT imaging = conditions: mouse, H69 xenograft tumor, iv, 20 MBq/0.5 nmol per animal, total radioactivity
[3] = tested on: mice bearing SSTR2-positive H69 xenografts; assay: In vivo SPECT/CT imaging; conditions: H69 xenograft mice, i.v. 20 MBq/0.5 nmol, n = 4
human albumin = human albumin (Homo sapiens, UniProt P02768); assay: Albumin binding properties (ultrafiltration); conditions: ~1 MBq in human albumin/PBS (500 µL, v:v = 1:4), 1 h, 37 °C; Centrifree ultrafiltration 30 KDa; gamma counter; n = 3, mean ± SEM
Chain of human albumin (P02768 25-609): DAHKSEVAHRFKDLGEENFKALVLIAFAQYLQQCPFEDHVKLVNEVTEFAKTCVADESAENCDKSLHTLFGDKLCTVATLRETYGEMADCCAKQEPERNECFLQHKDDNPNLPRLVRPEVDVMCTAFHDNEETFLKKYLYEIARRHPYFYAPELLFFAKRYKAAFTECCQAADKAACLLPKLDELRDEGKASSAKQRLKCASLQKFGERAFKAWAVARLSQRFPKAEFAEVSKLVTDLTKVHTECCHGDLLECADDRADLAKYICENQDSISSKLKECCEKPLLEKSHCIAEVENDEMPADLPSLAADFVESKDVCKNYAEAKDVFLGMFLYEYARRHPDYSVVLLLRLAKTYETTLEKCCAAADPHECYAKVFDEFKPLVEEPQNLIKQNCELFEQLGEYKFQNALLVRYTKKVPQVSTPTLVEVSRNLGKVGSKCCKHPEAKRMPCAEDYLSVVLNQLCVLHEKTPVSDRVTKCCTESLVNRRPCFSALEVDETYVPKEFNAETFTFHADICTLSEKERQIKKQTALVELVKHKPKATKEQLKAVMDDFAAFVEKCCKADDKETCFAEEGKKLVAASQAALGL

T1 sequence (P30874 whole entry): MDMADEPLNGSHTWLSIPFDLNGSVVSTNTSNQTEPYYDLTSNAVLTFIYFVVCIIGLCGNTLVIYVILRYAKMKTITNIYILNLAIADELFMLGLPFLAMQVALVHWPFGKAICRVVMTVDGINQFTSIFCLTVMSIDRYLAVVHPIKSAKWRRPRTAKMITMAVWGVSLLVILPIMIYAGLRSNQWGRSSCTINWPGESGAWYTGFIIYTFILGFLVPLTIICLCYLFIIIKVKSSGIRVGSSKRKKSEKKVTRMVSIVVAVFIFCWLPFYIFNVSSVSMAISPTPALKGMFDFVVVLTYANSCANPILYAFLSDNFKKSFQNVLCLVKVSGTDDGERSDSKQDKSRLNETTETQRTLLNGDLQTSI

IC50 [1]: 0.08 ± 0.00043 µM
Compound: C[C@@H](O)[C@@H]1NC(=O)[C@H](CCCCN)NC(=O)[C@@H](Cc2ccc(NC(N)=O)cc2)NC(=O)[C@H](Cc2ccc(NC(=O)[C@@H]3CC(=O)NC(=O)N3)cc2)NC(=O)[C@H](NC(=O)[C@H](Cc2ccc(Cl)cc2)NC(=O)[C@H](CCCCNC(=O)CCCc2ccc(I)cc2)NC(=O)CN2CCN(CC(=O)O)CCN(CC(=O)O)CCN(CC(=O)O)CC2)CSSC[C@@H](C(=O)N[C@H](Cc2ccc(O)cc2)C(N)=O)NC1=O [8a, DOTA-Lys(4-(p-iodophenyl)butyryl)-Phe(4-Cl)-c[D-Cys-Aph(Hor)-D-Aph(Cbm)-Lys-Thr-Cys]-D-Tyr-NH2] ({DOTA}-K(Butanoyl(4-(4-I-phenyl)))[Phe(4-Cl)][dC][Phe(4-NH2)](Dihydroorotyl(S))[dPhe(4-NHCONH2)]KTC[dY]-NH2; disulfide 3-8)

IC50 [1]: 0.13 ± 0.0003 µM
Compound: COc1ccc(CCCC(=O)NCCCC[C@H](NC(=O)CN2CCN(CC(=O)O)CCN(CC(=O)O)CCN(CC(=O)O)CC2)C(=O)N[C@@H](Cc2ccc(Cl)cc2)C(=O)N[C@@H]2CSSC[C@@H](C(=O)N[C@H](Cc3ccc(O)cc3)C(N)=O)NC(=O)[C@H]([C@@H](C)O)NC(=O)[C@H](CCCCN)NC(=O)[C@@H](Cc3ccc(NC(N)=O)cc3)NC(=O)[C@H](Cc3ccc(NC(=O)[C@@H]4CC(=O)NC(=O)N4)cc3)NC2=O)cc1 [8b, DOTA-Lys(4-(p-methoxyphenyl)butyryl)-Phe(4-Cl)-c[D-Cys-Aph(Hor)-D-Aph(Cbm)-Lys-Thr-Cys]-D-Tyr-NH2] ({DOTA}-K(Butanoyl(4-(4-MeO-phenyl)))[Phe(4-Cl)][dC][Phe(4-NH2)](Dihydroorotyl(S))[dPhe(4-NHCONH2)]KTC[dY]-NH2; disulfide 3-8)

IC50 [1]: 0.0027 ± 0.00026 µM
Compound: C[C@@H](O)[C@@H]1NC(=O)[C@H](CCCCN)NC(=O)[C@@H](Cc2ccc(NC(N)=O)cc2)NC(=O)[C@H](Cc2ccc(NC(=O)[C@@H]3CC(=O)NC(=O)N3)cc2)NC(=O)[C@H](NC(=O)[C@H](Cc2ccc(Cl)cc2)NC(=O)CN2CCN(CC(=O)O)CCN(CC(=O)O)CCN(CC(=O)O)CC2)CSSC[C@@H](C(=O)N[C@H](Cc2ccc(O)cc2)C(N)=O)NC1=O [JR11, reference compound] ({DOTA}-[Phe(4-Cl)][dC][Phe(4-NH2)](Dihydroorotyl(S))[dPhe(4-NHCONH2)]KTC[dY]-NH2; disulfide 2-7)

Stability in PBS (%) 1 h (Stability in PBS; 1 h): 97.1%
Stability in PBS (%) 4 h (Stability in PBS; 4 h): 96.4%
Stability in PBS (%) 24 h (Stability in PBS; 24 h): 95.4%
remaining at 1 h (Stability in mouse serum; 1 h): 98%
remaining at 4 h (Stability in mouse serum; 4 h): 97.9%
remaining at 24 h (Stability in mouse serum; 24 h): 98.5%
logD [2]: -2.07 ± 0.02
tissue uptake per volume at 4 h (In vivo SPECT/CT imaging): 2.7 ± 0.2 %ID/mL
tissue uptake per volume at 24 h (In vivo SPECT/CT imaging): 1 ± 0.1 %ID/mL
tissue uptake per volume at 48 h (In vivo SPECT/CT imaging): 0.8 ± 0.1 %ID/mL
tissue uptake per volume at 72 h (In vivo SPECT/CT imaging): 0.6 ± 0.1 %ID/mL
SPECT quantification, kidneys (K), 4 h ([3]; 4 h post-injection): 14.8 ± 1.2 % ID/mL
SPECT quantification, kidneys (K), 24 h ([3]; 24 h post-injection): 7.5 ± 0.4 % ID/mL
SPECT quantification, kidneys (K), 48 h ([3]; 48 h post-injection): 4.3 ± 0.3 % ID/mL
SPECT quantification, kidneys (K), 72 h ([3]; 72 h post-injection): 3.1 ± 0.5 % ID/mL
Protein-Bound Fraction (%) (human albumin): 56.3 ± 1.4%
Compound: COc1ccc(CCCC(=O)NCCCC[C@H](NC(=O)CN2CCN(CC(=O)O)CCN(CC(=O)O)CCN(CC(=O)O)CC2)C(=O)N[C@@H](Cc2ccc(Cl)cc2)C(=O)N[C@@H]2CSSC[C@@H](C(=O)N[C@H](Cc3ccc(O)cc3)C(N)=O)NC(=O)[C@H]([C@@H](C)O)NC(=O)[C@H](CCCCN)NC(=O)[C@@H](Cc3ccc(NC(N)=O)cc3)NC(=O)[C@H](Cc3ccc(NC(=O)[C@@H]4CC(=O)NC(=O)N4)cc3)NC2=O)cc1 [[^177Lu]Lu-8b, metal not drawn] ({DOTA}-K(Butanoyl(4-(4-MeO-phenyl)))[Phe(4-Cl)][dC][Phe(4-NH2)](Dihydroorotyl(S))[dPhe(4-NHCONH2)]KTC[dY]-NH2; disulfide 3-8)
